The numbers were not newly measured in patent publication US9756853B2, “Solid pesticidal formulation” (priority 2013, dated 2017), which cites them from elsewhere.

Structures are written as SMILES. Values after ≈ are worked out from the molar mass of the structure shown.

For the data set the following is noted: 20° C.

`CN/C(=N/CC1CCOC1)N[N+](=O)[O-]` (stereo not shown) [dinotefuran]: the solubility in water is 40 mg/mL (≈ 198 mM).
